Assay results from paper PMC11971462, “Generation and validation of a novel multitarget small molecule in glioblastoma” (Cell Death & Disease, 2025).

Key:
U87-MG cells [1] = assay: Cell viability with TMZ and DDI199 alone or combined; assay type: cell-based, human; conditions: 72 h, 250 µM TMZ or 0.5 µM DDI199 alone
Procedure: MTT assay was used to study cell viability. For that, cells were seeded at a density of 1.5 × 10^3 cells/well in 96-well plates, incubated overnight and then treated with increasing concentrations of DDI199. After 72 h of treatment, MTT absorbance was measured at 570 nm. GraphPad Prism software was used to analyze results and calculate IC50 values.

U87-MG cells [2] = assay: Subcutaneous U87-MG tumor growth, combined treatment with TMZ; assay type: in vivo, athymic nude-Foxn1nu mice; conditions: end-point, controls 600 mm^3
Procedure: (§1) For tumor growth experiments, 5 × 10^5 U87-MG cells were subcutaneously injected into two bottom flanks of athymic nude-Foxn1^nu mice, and once tumors reached a size of 25-50 mm^3, mice were sorted into groups taking into account gender and tumor size. Afterwards, mice were intratumorally treated with vehicle, SAHA 100 µM or DDI199 100 µM following a schedule of 5 days on and 2 days off. In combined treatment, mice were treated intraperitoneally with 0.5 mg/Kg of TMZ for 5 days and intratumorally following a schedule of 5 days on and 2 days off with vehicle, SAHA 100 µM or DDI199 100 µM. After 4 weeks of treatment, some mice were kept for washout experiment, while the rest were sacrificed and tumors were extracted for immunohistochemistry and to disaggregate for reinjection and oncosphere formation studies. For reinjection assays, 1.5 × 10^5 cells were subcutaneously injected and tumor size was periodically measured. Once tumors reached end-point criteria, they were extracted for immunohistochemical analysis. An external caliper was used for tumor size measurement and the tumor volume was estimated using the formula V = L · W^2 · 0.5 (where L is tumor length and W is the tumor width).

U87-MG cells [3] = assay: Subcutaneous U87-MG tumor growth, single treatment; assay type: in vivo, athymic nude-Foxn1nu mice; conditions: day 34, 100 µM intratumoral, 5 days on 2 days off; controls 800 mm^3
Procedure: as §1

U87-MG cells [4] = assay: Washout experiment after treatment; assay type: in vivo, athymic nude-Foxn1nu mice; conditions: after 4 weeks treatment; controls 10 days
Procedure: as §1

SMILES	Cell viability, single agent (U87-MG cells [1])	Mean tumor volume, TMZ alone (U87-MG cells [2]; TMZ 0.5 mg/kg ip 5 days) [mm^3]	Mean final tumor volume (U87-MG cells [3]) [mm^3]	Time to end-point volume after washout (U87-MG cells [4]) [days]	Mean tumor volume, combined with TMZ (U87-MG cells [2]; TMZ 0.5 mg/kg ip 5 days + 100 µM intratumoral) [mm^3]
Cn1nnc2c(C(N)=O)ncn2c1=O [TMZ, temozolomide, reference compound]	reduced cell viability	400			
O=C(CCCCCCC(=O)Nc1ccccc1)NO [SAHA, Vorinostat, reference compound]			550	10	355
